Experiments:
Trypanosoma cruzi = test: Antitrypanosomal activity against Trypanosoma cruzi Tulahuen infected in mouse L929 cells assessed as parasite growth inhibition incubated for 96 hrs; type: functional, organism-based; conditions: L929, 96 h
[1] = Cytotoxicity against human THP-1 cells assessed as reduction in cell viability incubated for 72 hrs by alamarblue staining based analysis; type: toxicity
[2] = Selectivity index, ratio of CC50 for cytotoxicity against human THP-1 cells assessed as reduction in cell viability to IC50 for antileishmanial activity against […] stage of Leishmania infantum MHOM/BR/1974/PP75 infected in human THP-1 cells assessed as parasite growth inhibition; type: toxicity, cell-based; conditions: read-out: Ratio CC50/IC50
[3] = Selectivity index, ratio of CC50 for cytotoxicity against human THP-1 cells assessed as reduction in cell viability to IC50 for antileishmanial activity against […] stage of Leishmania braziliensis MHOM/BR/75/M2904 infected in human THP-1 cells assessed as parasite growth inhibition; type: toxicity, cell-based; conditions: read-out: Ratio CC50/IC50
Leishmania braziliensis = test: Antileishmanial activity against […] stage of Leishmania braziliensis MHOM/BR/75/M2904 infected in human THP-1 cells assessed as parasite growth inhibition incubated for 72 hrs by microplate reader analysis; type: functional, organism-based; conditions: MHOM/BR/75/M2904, THP-1, 72 h
Leishmania infantum = test: Antileishmanial activity against […] stage of Leishmania infantum MHOM/BR/1974/PP75 infected in human THP-1 cells assessed as parasite growth inhibition incubated for 72 hrs by microplate reader analysis; type: functional, organism-based; conditions: MHOM/BR/1974/PP75, THP-1, 72 h
Leishmania donovani [4] = test: Antileishmanial activity against amastigote form of Leishmania donovani infected in HepG2 cells assessed as inhibition of parasite growth incubated for 72 hrs by Alamar blue staining based assay; type: functional, organism-based; conditions: HepG2, 72 h
[5] = Cytotoxicity against human HepG2 cells assessed as reduction in cell viability incubated for 4 days by celltiter-glo assay; type: toxicity, cell-based; conditions: time 4 day
Leishmania donovani [6] = test: Inhibition of Leishmania donovani at 10 uM GSK-3 by kinase glo assay relative to control

IC50 (Trypanosoma cruzi) | inhibition (Leishmania donovani [6]) | Structure (SMILES) | CC50 at 72 h [1] | selectivity ratio [2] | selectivity ratio [3] | IC50 (Leishmania braziliensis) | IC50 (Leishmania infantum) | IC50 (Leishmania donovani [4]) | CC50 at 96 h [5]
> 175 µM | – | O=C(c1cccc(Cl)c1)N1CCN(c2cnccn2)CC1 | 662 µM | 6 | 7 | 93.4 µM | 113 µM | – | –
– | – | O=C(c1cccnc1)N1CCN(c2cnccn2)CC1 | > 3710 µM | > 26 | > 28 | 132 µM | 142 µM | – | –
– | – | O=C(c1cc(Cl)ccc1O)N1CCN(c2cnccn2)CC1 | 1600 µM | 149 | 357 | 4.5 µM | 10.8 µM | – | –
> 175 µM | – | O=C(c1ccc(-n2cnnn2)cc1)N1CCN(c2cnccn2)CC1 | 2610 µM | 449 | 293 | 8.9 µM | 5.8 µM | – | –
– | – | O=C(c1ccc(Cl)nc1)N1CCN(c2cnccn2)CC1 | 349 µM | 184 | 35 | 10.1 µM | 1.9 µM | – | –
> 175 µM | – | O=C(c1ccccc1O)N1CCN(c2cnccn2)CC1 | 2620 µM | 45 | 31 | 85.2 µM | 58.8 µM | – | –
– | – | COc1ccc(C(=O)N2CCN(c3cnccn3)CC2)cc1OC | 721 µM | 13 | 21 | 33.6 µM | 55.3 µM | – | –
– | – | Nc1ccc(C(=O)N2CCN(c3cnccn3)CC2)cn1 | 2670 µM | 524 | 224 | 11.9 µM | 5.1 µM | – | –
> 175 µM | – | O=C(c1ccccc1)N1CCN(c2cnccn2)CC1 | 716 µM | 11 | 29 | 24.7 µM | 63.1 µM | – | –
– | – | O=C(c1ccc(NC2CCCC2)nc1)N1CCN(c2cnccn2)CC1 | 763 µM | 3 | 2 | 337 µM | 280 µM | – | –
– | – | O=C(c1ccccn1)N1CCN(c2cnccn2)CC1 | 1130 µM | 18 | 32 | 34.9 µM | 64.8 µM | – | –
– | – | O=C(c1ccc(O)cn1)N1CCN(c2cnccn2)CC1 | > 3500 µM | > 27 | > 37 | 94 µM | 128 µM | – | –
– | – | O=C(c1ccc(F)cc1O)N1CCN(c2cnccn2)CC1 | 1130 µM | 80 | 44 | 25.8 µM | 14.2 µM | – | –
– | – | N#Cc1ccc(C(=O)N2CCN(c3cnccn3)CC2)cc1 | 1290 µM | 81 | 57 | 22.7 µM | 15.9 µM | – | –
> 175 µM | 1.65% | O=C(c1ccc(O)c(Cl)c1)N1CCN(c2cnccn2)CC1 | 542 µM | 46 | 46 | 11.7 µM | 11.9 µM | 0.31 µM | > 100 µM
> 175 µM | – | COc1ccc(C(=O)N2CCN(c3cnccn3)CC2)cc1 | 1900 µM | 422 | 188 | 10.1 µM | 4.5 µM | – | –
– | – | O=C(/C=C/c1ccc(O)c(O)c1)N1CCN(c2cnccn2)CC1 | > 3060 µM | > 29 | > 41 | 74.6 µM | 105 µM | – | –
> 175 µM | – | O=C(c1ccc(OC(F)(F)F)cc1)N1CCN(c2cnccn2)CC1 | 865 µM | 115 | 49 | 17.5 µM | 7.5 µM | – | –
– | – | N[C@@H](Cc1ccc(O)cc1)C(=O)N1CCN(c2cnccn2)CC1 | 2410 µM | – | 35 | 69.2 µM | 3.3 µM | – | –
– | – | CC(C)(C)OC(=O)N[C@@H](Cc1ccc(O)cc1)C(=O)N1CCN(c2cnccn2)CC1 | 1010 µM | 349 | 108 | 9.4 µM | 2.9 µM | – | –
> 175 µM | – | O=C(c1ccc(C(F)(F)F)cc1)N1CCN(c2cnccn2)CC1 | 421 µM | 5 | 8 | 55.7 µM | 84.5 µM | – | –

IC50 (Trypanosoma cruzi) | inhibition (Leishmania donovani [6]) | Structure (SMILES) | CC50 at 72 h [1] | selectivity ratio [2] | selectivity ratio [3] | IC50 (Leishmania braziliensis) | IC50 (Leishmania infantum) | IC50 (Leishmania donovani [4]) | CC50 at 96 h [5]
– | – | C[C@@H]1[C@H](O)[C@@H](C)/C=C/C=C/C=C/C=C/C=C/C=C/C=C/[C@H](O[C@@H]2O[C@H](C)[C@@H](O)[C@H](N)[C@@H]2O)C[C@@H]2O[C@](O)(C[C@@H](O)C[C@@H](O)[C@H](O)CC[C@@H](O)C[C@@H](O)CC(=O)O[C@H]1C)C[C@H](O)[C@H]2C(=O)O [AMPHOTERICIN B] | 364 µM | 1460 | 2800 | 0.13 µM | 0.25 µM | – | –
> 175 µM | – | O=C(c1cccc(O)c1)N1CCN(c2cnccn2)CC1 | 2200 µM | 87 | 156 | 14.1 µM | 25.3 µM | – | –
– | – | O=C(c1ccc2cc(O)ccc2c1)N1CCN(c2cnccn2)CC1 | 796 µM | 241 | 306 | 2.6 µM | 3.3 µM | – | –
– | – | Oc1ccc(N2CCN(c3cnccn3)CC2)cc1 | > 3900 µM | > 89 | > 144 | 27.1 µM | 43.6 µM | – | –
– | – | COc1ccc(S(=O)(=O)N2CCN(c3cnccn3)CC2)cc1 | > 2990 µM | > 24 | > 32 | 94.1 µM | 122 µM | – | –
> 175 µM | – | COc1ccc(Cl)cc1C(=O)N1CCN(c2cnccn2)CC1 | 1010 µM | – | 130 | 7.8 µM | 27.5 µM | – | –
> 175 µM | – | O=C(c1ccc(C(F)(F)F)nc1)N1CCN(c2cnccn2)CC1 | 10500 µM | 298 | 327 | 32.1 µM | 35.2 µM | – | –
– | – | O=C(c1ccc(O)cc1O)N1CCN(c2cnccn2)CC1 | 443 µM | 20 | 23 | 19.1 µM | 21.9 µM | – | –
– | – | O=C(c1ccc(N2CCCC2)nc1)N1CCN(c2cnccn2)CC1 | 280 µM | 53 | 48 | 5.9 µM | 5.3 µM | – | –
– | – | O=S(=O)(c1ccc(O)cc1)N1CCN(c2cnccn2)CC1 | 2510 µM | 16 | 22 | 113 µM | 157 µM | – | –
> 175 µM | – | O=C(c1ccc(O)cc1)N1CCN(c2cnccn2)CC1 | 1070 µM | 346 | 141 | 7.6 µM | 3.1 µM | – | –
– | – | O=C(N1CCN(c2cnccn2)CC1)n1ccnc1 | 3190 µM | 438 | 347 | 9.2 µM | 7.3 µM | – | –
– | – | O=C(c1cccc(O)c1O)N1CCN(c2cnccn2)CC1 | > 3330 µM | > 1190 | > 16600 | 0.2 µM | 2.8 µM | – | –
– | – | COc1ccc(C(=O)N2CCN(c3cnccn3)CC2)c(OC)c1 | 482 µM | 18 | 16 | 30.6 µM | 26.4 µM | – | –
– | – | COc1ccc(C(=O)N2CCN(c3cnccn3)CC2)cn1 | 1430 µM | 231 | 82 | 17.5 µM | 6.2 µM | – | –
> 175 µM | – | O=C(c1ccc([N+](=O)[O-])cc1)N1CCN(c2cnccn2)CC1 | 2810 µM | 13 | 17 | 161 µM | 221 µM | – | –
> 175 µM | – | O=C(c1cccc(C(F)(F)F)n1)N1CCN(c2cnccn2)CC1 | 1700 µM | 0.2 | 0.5 | 3540 µM | 7430 µM | – | –
– | – | COc1cccc(C(=O)N2CCN(c3cnccn3)CC2)c1OC | 2000 µM | 18 | 24 | 82.1 µM | 112 µM | – | –
> 175 µM | – | COc1cc(F)ccc1C(=O)N1CCN(c2cnccn2)CC1 | 1360 µM | 40 | 104 | 13.1 µM | 34.3 µM | – | –
– | – | O=C(c1ccc(O)c(O)c1)N1CCN(c2cnccn2)CC1 | 1420 µM | 407 | 151 | 9.4 µM | 3.5 µM | – | –
– | – | O=C(c1ccc(O)nc1)N1CCN(c2cnccn2)CC1 | > 3500 µM | 1460 | > 19 | 184 µM | 176 µM | – | –
